Source: US9820989B2, “Method of treating conditions with kinase inhibitors” (Allergan, Inc., priority 2012, dated 2017)

Target: PDGFRβ kinase (Homo sapiens (Human), UniProt P09619)
Experiment: PDGFRβ Kinase Assay (biochemical, poly-Glu-Tyr ELISA)
Conditions: purified cytoplasmic domain PDGFR-b protein, 36 μM ATP
Method: Biochemical PDGFRβ kinase assays were performed in 96 well microliter plates that were coated overnight with 75 μg of poly-Glu-Tyr (4:1) in 10 mM Phosphate Buffered Saline (PBS), pH 7.4. The coated plates were washed with 2 mls per well PBS+0.05% Tween-20 (PBS-T), blocked by incubation with PBS containing 1% BSA, then washed with 2 mls per well PBS-T prior to starting the reaction. Reactions were carried out in 100 μL reaction volumes containing 36 μM ATP in kinase buffer (50 mM Hepes buffer pH 7.4, 20 mM MgCl2, 0.1 mM MnCl2 and 0.2 mM Na3VO4). Test compounds were reconstituted in 100% DMSO and added to the reaction to give a final DMSO concentration of 5%. Reactions were initiated by the addition 20 ul per well of kinase buffer containing 200-300 ng purified cytoplasmic domain PDGFR-b protein (Millipore). […] The reaction was terminated by the addition of 100 μl of 2.5N H2SO4 to each well and read using a microplate ELISA reader set at 492 nm. IC50 values for compound inhibition were calculated directly from graphs of optical density (arbitrary units) versus compound concentration following subtraction of blank values.
IC50 values for test compounds were calculated from % inhibition of PDGF-BB stimulated responses in the absence of inhibitor.

Chain of PDGFRβ kinase (P09619 554-1106): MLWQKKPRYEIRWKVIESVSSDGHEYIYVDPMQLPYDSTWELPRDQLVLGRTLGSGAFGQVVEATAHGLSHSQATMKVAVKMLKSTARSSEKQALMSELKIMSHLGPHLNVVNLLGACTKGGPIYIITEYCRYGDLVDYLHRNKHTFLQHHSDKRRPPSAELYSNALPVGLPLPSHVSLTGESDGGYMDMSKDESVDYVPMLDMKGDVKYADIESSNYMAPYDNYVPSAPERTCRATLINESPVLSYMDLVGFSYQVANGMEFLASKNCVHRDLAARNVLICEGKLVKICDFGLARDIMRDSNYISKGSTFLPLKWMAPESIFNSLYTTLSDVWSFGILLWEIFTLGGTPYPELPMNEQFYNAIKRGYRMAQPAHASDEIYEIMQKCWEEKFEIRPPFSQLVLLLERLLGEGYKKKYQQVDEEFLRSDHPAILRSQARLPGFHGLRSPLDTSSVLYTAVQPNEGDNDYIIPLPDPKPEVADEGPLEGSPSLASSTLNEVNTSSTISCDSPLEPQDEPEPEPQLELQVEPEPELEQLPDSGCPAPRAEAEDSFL

IC50: > 10 µM
Structure (SMILES): CC(C)c1ccc(NC(=O)c2cc(N3Cc4cnc(N)nc4C3)ccn2)cc1 [Example 83, 4-(2-amino-5,7-dihydro-6H-pyrrolo[3,4-d]pyrimidin-6-yl)-N-(4-isopropylphenyl)pyridine-2-carboxamide]
